Earlier results as cited in patent US6476042B1, “Combination therapy for the treatment of migraine” (Pfizer Inc., priority 1999, dated 2002).

Tested on: carotid vascular resistance
Details: anaesthetized dog

CNS(=O)(=O)Cc1ccc2[nH]cc(CCN(C)C)c2c1 [Sumatriptan, sumatriptan]
effect on carotid vascular resistance: selective increase
